Each structure is given as a SMILES string.

Experiment [1] can be described thus: Inhibition of ThDP-dependent pyruvate dehydrogenase E1 subunit in porcine heart using pyruvate as substrate by spectrophotometric coupled assay. Also noted: species or system Sus scrofa.
A short description of experiment [2]: Inhibition of ThDP-dependent Saccharomyces cerevisiae transketolase by spectrophotometric coupled assay.
Experiment [3] can be described thus: Selectivity ratio of Ki for pyruvate dehydrogenase E1 subunit in porcine heart to Ki for Escherichia coli DXP synthase.
Experiment [4] has as its target T1, 1-deoxy-D-xylulose-5-phosphate synthase (Escherichia coli (strain K12), UniProt P77488).
T1 sequence (P77488 whole entry): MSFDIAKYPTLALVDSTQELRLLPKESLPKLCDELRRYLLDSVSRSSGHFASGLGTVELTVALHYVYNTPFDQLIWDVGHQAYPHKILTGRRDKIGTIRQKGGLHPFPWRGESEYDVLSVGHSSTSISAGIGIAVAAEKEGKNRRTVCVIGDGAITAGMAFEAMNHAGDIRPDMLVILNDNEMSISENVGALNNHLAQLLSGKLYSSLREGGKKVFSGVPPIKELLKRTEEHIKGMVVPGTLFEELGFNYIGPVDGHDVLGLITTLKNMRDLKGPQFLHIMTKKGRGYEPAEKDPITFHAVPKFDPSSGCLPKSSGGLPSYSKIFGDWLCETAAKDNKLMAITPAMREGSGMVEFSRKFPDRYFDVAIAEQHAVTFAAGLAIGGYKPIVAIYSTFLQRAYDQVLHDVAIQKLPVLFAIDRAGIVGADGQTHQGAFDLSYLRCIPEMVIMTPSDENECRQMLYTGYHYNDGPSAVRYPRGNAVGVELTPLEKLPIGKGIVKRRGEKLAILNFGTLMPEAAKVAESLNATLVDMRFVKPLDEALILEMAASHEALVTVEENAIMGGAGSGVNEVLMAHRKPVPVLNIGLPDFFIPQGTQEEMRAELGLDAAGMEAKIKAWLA
The experiment is described as follows: Competitive inhibition of ThDP-dependent Escherichia coli DXP synthase using pyruvate as substrate assessed as NADPH consumption by spectrophotometric coupled assay.

For the compound `COP(=O)(O)C(C)=O`, the results for the Ki in experiment [1], in experiment [2] and in experiment [4] were 29.9 µM, more than 1 mM and 0.96 µM, respectively. Also, the Ratio Ki in experiment [3] was determined as 31.
Turning to `CCCCC(=O)P(=O)(O)OC`, the Ki was more than 1000 µM in experiment [1], more than 1 mM in experiment [2] and more than 1000 µM in experiment [4].
Consider `CCCC(=O)P(=O)(O)OC`, for which the inhibition constant Ki in experiment [1] was more than 1000 µM; in experiment [2] it was more than 1 mM; in experiment [4], more than 1000 µM.
Regarding `CCC(=O)P(=O)(O)OC`, the Ki is more than 1000 µM in experiment [1], more than 1 mM in experiment [2] and 258 µM in experiment [4].
As to `CCCCOP(=O)(O)C(C)=O`, the Ki is 335 µM in experiment [1], more than 1 mM in experiment [2] and 5.6 µM in experiment [4]. For the same compound, the Ratio Ki in experiment [3] is 60.
Take `CCOP(=O)(O)C(C)=O`: the Ki was 46.6 µM in experiment [1], more than 1 mM in experiment [2] and 6.7 µM in experiment [4].

Usually Ki stands for the equilibrium dissociation constant of an inhibitor or competing ligand from its target.

(Values after ChEMBL document CHEMBL3217661, “Selective inhibition of E. coli 1-deoxy-D-xylulose-5-phosphate synthase by acetylphosphonates()” (Medchemcomm, 2012).)
